Results: patent US20220332701A1, “HETEROCYCLIC COMPOUNDS AS BCR-ABL INHIBITORS” (ASCENTAGE PHARMA (SUZHOU) CO., LTD., priority 2019, published 2022)

Columns and labels:
BaF3(WT) = BaF3(WT) (Homo sapiens, UniProt P00519); assay: WST (CCK-8) anti-proliferation assay, BaF3 WT cells; details: read-out: BaF3(WT); anti-proliferative IC50, 72 h treatment, CCK-8, BaF3 WT
Method: (§1) The anti-proliferative effect of representative Compounds of the Disclosure was determined by a water-soluble tetrazolium (WST)-based assay using Cell Counting Kit-8 (CCK-8). Cells were seeded in 96-well plates and treated with different concentrations of test articles for 72 h. Each treatment was tested in triplicates. Briefly, a series of 9 concentrations were chosen for each test article and added at 100 μl/well into a 96-well plate. Each concentration was tested in triplicates. 100 μl of diluent was added into 3-6 wells in the same plate for cell control group, and another set of 3-6 wells was used as a blank control.
(§2) In each well, 100 μl of cell suspension (containing optimal cell numbers, which creates approximately 100% confluence of cells in control wells based on by the absorbance (OD) value) was dispensed into the same 96-well plate except for the blank well. The plate was then cultured at 37° C. in an incubator in an atmosphere with 5% CO2 for 72 h. At the end of treatments, 20 μl/well of CCK-8 reagent was directly added to each wells. The plate was then incubated at 37° C. in an incubator in an atmosphere with 5% CO2 for 2-4 hour.
(§3) The cells viability was calculated using the mean OD value of triplicated wells following the equation below: (OD sample−OD blank)/(OD cell control−OD blank)×100 IC50 values were calculated with Graphpad Prism 6.0 software using nonlinear regression (curve fitting) type data analysis.

BaF3(T315I) = BaF3(T315I) (Homo sapiens, UniProt P00519, T315I, cells depend on it); assay: WST (CCK-8) anti-proliferation assay, BaF3 T315I cells; details: read-out: BaF3(T315I); anti-proliferative IC50, 72 h treatment, CCK-8, BaF3 T315I
Method: as §1, §2, §3

SMILES	GI50 (BaF3(WT)) [nM]	GI50 (BaF3(T315I)) [nM]
CC(C)N1CC(CN(C)C)c2cc(C(=O)Nc3ccc(OC(F)(F)Cl)cc3)cc(-c3ccn[nH]3)c21 (stereo not shown) [VII-27, N-(4-(chlorodifluoromethoxy)phenyl)-3-((dimethylamino)methyl)-1-isopropyl-7-(1H-pyrazol-5-yl)indoline-5-carboxamide]	85	366
CC(C)N1CC(CO)c2cc(C(=O)Nc3ccc(OC(F)(F)Cl)cc3)cc(-c3ccn[nH]3)c21 (stereo not shown) [VII-43, N-(4-(chlorodifluoromethoxy)phenyl)-3-(hydroxymethyl)-1-isopropyl-7-(1H-pyrazol-5-yl)indoline-5-carboxamide]	16	332
CC(C)N1CCCCc2cc(C(=O)Nc3ccc(OC(F)(F)Cl)cc3)cc(-c3ccn[nH]3)c21 [X-1, N-(4-(chlorodifluoromethoxy)phenyl)-1-isopropyl-9-(1H-pyrazol-5-yl)-2,3,4,5-tetrahydro-1H-benzo[b]azepine-7-carboxamide]	67	1290
CC(C)N1c2c(cc(C(=O)Nc3ccc(OC(F)(F)Cl)cc3)cc2-c2cncnc2)CC1C(=O)NCCS(C)(=O)=O (stereo not shown) [VII-22, N5-(4-(chlorodifluoromethoxy)phenyl)-1-isopropyl-N2-(2-(methylsulfonyl)ethyl)-7-(pyrimidin-5-yl)indoline-2,5-dicarboxamide]	145	1350
O=C(Nc1ccc(OC(F)(F)Cl)cc1)c1cc2c(c(-c3ccn[nH]3)c1)C1(CC(O)C(O)C1)C(=O)N2 (stereo not shown) [V-9, N-(4-(chlorodifluoromethoxy)phenyl)-3,4-dihydroxy-2′-oxo-4′-(1H-pyrazol-5-yl)spiro[cyclopentane-1,3′-indoline]-6′-carboxamide]	108	910
CN1C(=O)C(C)(C)c2c(-c3ccn[nH]3)cc(C(=O)Nc3ccc(OC(F)(F)Cl)cc3)cc21 [V-2, N-(4-(chlorodifluoromethoxy)phenyl)-1,3,3-trimethyl-2-oxo-4-(1H-pyrazol-5-yl)indoline-6-carboxamide]	55	354
O=C(Nc1ccc(OC(F)(F)Cl)cc1)c1cc2c(c(-c3ccn[nH]3)c1)C1(CC=CC1)C(=O)N2 [V-4, N-(4-(chlorodifluoromethoxy)phenyl)-2′-oxo-4′-(1H-pyrazol-5-yl)spiro[cyclopentane-1,3′-indolin]-3-ene-6′-carboxamide]	43	292
O=C(Nc1ccc(OC(F)(F)Cl)cc1)c1cc2c(c(-c3ccn[nH]3)c1)N(C1CC(CO)C1)CC2 (stereo not shown) [VII-12, N-(4-(chlorodifluoromethoxy)phenyl)-1-(3-(hydroxymethyl)cyclobutyl)-7-(1H-pyrazol-3-yl)indoline-5-carboxamide]	112	123
CC(C)N1CC(C)(CO)c2cc(C(=O)Nc3ccc(OC(F)(F)Cl)cc3)cc(-c3ccn[nH]3)c21 (stereo not shown) [VII-41, N-(4-(chlorodifluoromethoxy)phenyl)-3-(hydroxymethyl)-1-isopropyl-3-methyl-7-(1H-pyrazol-5-yl)indoline-5-carboxamide]	46	168
O=C(Nc1ccc(OC(F)(F)Cl)cc1)c1cc2c(c(-c3ccn[nH]3)c1)N(C1CC(CCl)C1)CC2 (stereo not shown) [VII-11, N-(4-(chlorodifluoromethoxy)phenyl)-1-(3-(chloromethyl)cyclobutyl)-7-(1H-pyrazol-3-yl)indoline-5-carboxamide]	29	946
CC1(C)C(=O)Nc2cc(C(=O)Nc3ccc(OC(F)(F)Cl)cc3)cc(-c3ccn[nH]3)c21 [V-1, N-(4-(chlorodifluoromethoxy)phenyl)-3,3-dimethyl-2-oxo-4-(1H-pyrazol-5-yl)indoline-6-carboxamide]	45	71
CC1CN(C(C)C)c2c(-c3cncnc3)cc(C(=O)Nc3ccc(OC(F)(F)Cl)cc3)cc21 (stereo not shown) [VII-37, N-(4-(chlorodifluoromethoxy)phenyl)-1-isopropyl-3-methyl-7-(pyrimidin-5-yl)indoline-5-carboxamide]	41	395
CC(C)N1c2c(cc(C(=O)Nc3ccc(OC(F)(F)Cl)cc3)cc2-c2ccn[nH]2)CC1C(=O)NCCN(C)C (stereo not shown) [VII-32, N5-(4-(chlorodifluoromethoxy)phenyl)-N2-(2-(dimethylamino)ethyl)-1-isopropyl-7-(1H-pyrazol-5-yl)indoline-2,5-dicarboxamide]	308	2160
CC1(C)c2c(cc(C(=O)Nc3ccc(OC(F)(F)Cl)cc3)cc2-c2ccn[nH]2)C(=O)N1CCO [IV-5, N-(4-(chlorodifluoromethoxy)phenyl)-2-(2-hydroxyethyl)-1,1-dimethyl-3-oxo-7-(1H-pyrazol-5-yl)isoindoline-5-carboxamide]	121	1060
O=C(Nc1ccc(OC(F)(F)Cl)cc1)c1cc2c(c(-c3ccn[nH]3)c1)N(C1CCCCC1)CC2 [VII-3, N-(4-(chlorodifluoromethoxy)phenyl)-1-cyclohexyl-7-(1H-pyrazol-5-yl) indoline-5-carboxamide]	123	574
CC(C)N1c2c(cc(C(=O)Nc3ccc(OC(F)(F)Cl)cc3)cc2-c2ccn[nH]2)CC1CO (stereo not shown) [VII-34, N-(4-(chlorodifluoromethoxy)phenyl)-2-(hydroxymethyl)-1-isopropyl-7-(1H-pyrazol-5-yl)indoline-5-carboxamide]	45	648
CN1C(=O)C(C)(C)c2cc(C(=O)Nc3ccc(OC(F)(F)Cl)cc3)cc(-c3ccn[nH]3)c21 [VIII-1, N-(4-(chlorodifluoromethoxy)phenyl)-1,3,3-trimethyl-2-oxo-7-(1H-pyrazol-5-yl)indoline-5-carboxamide]	458	3680
CC1(C)CNc2cc(C(=O)Nc3ccc(OC(F)(F)Cl)cc3)cc(-c3ccn[nH]3)c21 [III-3, N-(4-(chlorodifluoromethoxy)phenyl)-3,3-dimethyl-4-(1H-pyrazol-5-yl)indoline-6-carboxamide]	94	790
CC(C)N1c2c(cc(C(=O)Nc3ccc(OC(F)(F)Cl)cc3)cc2-c2cncnc2)CC1C(=O)N1CCOCC1 (stereo not shown) [VII-23, N-(4-(chlorodifluoromethoxy)phenyl)-1-isopropyl-2-(morpholine-4-carbonyl)-7-(pyrimidin-5-yl)indoline-5-carboxamide]	17	146
CC(C)C(=O)N1CCc2cc(C(=O)Nc3ccc(OC(F)(F)Cl)cc3)cc(-c3ccn[nH]3)c21 [VII-10, N-(4-(chlorodifluoromethoxy)phenyl)-1-isobutyryl-7-(1H-pyrazol-5-yl) indoline-5-carboxamide]	1160	3840
CC1c2cc(C(=O)Nc3ccc(OC(F)(F)Cl)cc3)cc(-c3ccn[nH]3)c2N(C(C)C)C1CO (stereo not shown) [VII-19, N-(4-(chlorodifluoromethoxy)phenyl)-2-(hydroxymethyl)-1-isopropyl-3-methyl-7-(1H-pyrazol-5-yl)indoline-5-carboxamide]	133	1090
CC(C)n1cc(Cl)c2cc(C(=O)Nc3ccc(OC(F)(F)Cl)cc3)cc(-c3ccn[nH]3)c21 [XII-3, 3-chloro-N-(4-(chlorodifluoromethoxy)phenyl)-1-isopropyl-7-(1H-pyrazol-5-yl)-1H-indole-5-carboxamide]	505	3270
CN1C(=O)c2cc(C(=O)Nc3ccc(OC(F)(F)Cl)cc3)cc(-c3ccncc3)c2C1(C)C [IV-4, N-(4-(chlorodifluoromethoxy)phenyl)-1,1,2-trimethyl-3-oxo-7-(pyridin-4-yl)isoindoline-5-carboxamide]	129	581
CNCC1Cc2cc(C(=O)Nc3ccc(OC(F)(F)Cl)cc3)cc(-c3ccn[nH]3)c2N1C(C)C (stereo not shown) [VII-17, N-(4-(chlorodifluoromethoxy)phenyl)-1-isopropyl-2-((methylamino)methyl)-7-(1H-pyrazol-5-yl) indoline-5-carboxamide]	584	3230
CN1CCC2(CC1)C(=O)Nc1cc(C(=O)Nc3ccc(OC(F)(F)Cl)cc3)cc(-c3ccn[nH]3)c12 [V-10, N-(4-(chlorodifluoromethoxy)phenyl)-1′-methyl-2-oxo-4-(1H-pyrazol-5-yl)spiro[indoline-3,4′-piperidine]-6-carboxamide]	110	921
CC(=O)N1CC(C)(C)c2c(-c3ccn[nH]3)cc(C(=O)Nc3ccc(OC(F)(F)Cl)cc3)cc21 [III-4, 1-acetyl-N-(4-(chlorodifluoromethoxy)phenyl)-3,3-dimethyl-4-(1H-pyrazol-5-yl)indoline-6-carboxamide]	22	176
